From patent US10301265B2 (priority 2008, dated 2019)
“And” between values parts separate entries of the source, which are not always exact repeats. Identical values can stand only once. Like-named read-outs stand apart in the source and are kept apart here. Marks after values point to notes of the source that are not given here.

Columns and labels:
[1] = system: neuroblastoma N2a cells; details: for concentration well-tolerated by the cells / concentration toxic to N2a cells: mouse
[2] = biological target: recombinant full-length BoNT/B light chain (rBLC) (Clostridium botulinum, UniProt P10844); test: biochemical; details: for inhibition at 20 µM: read-out: % Inhibition Against rBLC
Sequence of recombinant full-length BoNT/B light chain (rBLC) (P10844 2-441 limits assumed): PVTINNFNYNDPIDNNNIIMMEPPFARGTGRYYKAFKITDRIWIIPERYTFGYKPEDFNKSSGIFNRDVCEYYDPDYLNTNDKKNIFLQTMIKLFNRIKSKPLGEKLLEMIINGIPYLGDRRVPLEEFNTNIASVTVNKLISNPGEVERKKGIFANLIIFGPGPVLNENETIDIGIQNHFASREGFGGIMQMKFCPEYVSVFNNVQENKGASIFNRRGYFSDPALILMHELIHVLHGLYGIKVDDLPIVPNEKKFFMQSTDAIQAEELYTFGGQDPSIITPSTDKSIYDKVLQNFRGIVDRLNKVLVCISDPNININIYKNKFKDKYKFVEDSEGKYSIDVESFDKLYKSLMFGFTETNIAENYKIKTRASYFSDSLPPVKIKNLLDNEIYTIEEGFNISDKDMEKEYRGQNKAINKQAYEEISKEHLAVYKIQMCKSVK

[3] = system: BoNT/A-mediated cleavage of intracellular SNAP-25 in N2a cells; type: cell-based, murine; details: 10 μM
[4] = biological target: recombinant full-length BoNT/A light chain (rALC) (Clostridium botulinum, UniProt P0DPI0); test: biochemical; details: read-out: % Inhibition Against rALC
Sequence of recombinant full-length BoNT/A light chain (rALC) (P0DPI0 2-448 limits assumed): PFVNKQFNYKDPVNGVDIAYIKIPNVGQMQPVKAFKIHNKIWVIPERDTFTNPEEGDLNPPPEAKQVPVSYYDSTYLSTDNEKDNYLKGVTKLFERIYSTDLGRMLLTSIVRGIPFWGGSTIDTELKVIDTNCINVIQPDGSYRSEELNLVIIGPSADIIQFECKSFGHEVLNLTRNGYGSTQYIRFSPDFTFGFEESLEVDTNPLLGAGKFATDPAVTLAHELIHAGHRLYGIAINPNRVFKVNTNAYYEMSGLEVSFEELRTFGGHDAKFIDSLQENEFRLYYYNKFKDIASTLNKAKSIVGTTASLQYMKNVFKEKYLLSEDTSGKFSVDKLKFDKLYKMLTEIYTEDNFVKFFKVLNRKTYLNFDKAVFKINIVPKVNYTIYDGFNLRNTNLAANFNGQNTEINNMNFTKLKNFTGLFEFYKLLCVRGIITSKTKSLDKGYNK

[5] = system: BoNT/A-induced neuromuscular block in mouse phrenic nerve hemidiaphragm
[6] = biological target: BoNT/A (Clostridium botulinum, UniProt P0DPI0); test: biochemical; details: for inhibition at 5 µM: read-out: % Inhibition against BoNT/A (5 μM)
Sequence of BoNT/A (P0DPI0 1-448 limits assumed): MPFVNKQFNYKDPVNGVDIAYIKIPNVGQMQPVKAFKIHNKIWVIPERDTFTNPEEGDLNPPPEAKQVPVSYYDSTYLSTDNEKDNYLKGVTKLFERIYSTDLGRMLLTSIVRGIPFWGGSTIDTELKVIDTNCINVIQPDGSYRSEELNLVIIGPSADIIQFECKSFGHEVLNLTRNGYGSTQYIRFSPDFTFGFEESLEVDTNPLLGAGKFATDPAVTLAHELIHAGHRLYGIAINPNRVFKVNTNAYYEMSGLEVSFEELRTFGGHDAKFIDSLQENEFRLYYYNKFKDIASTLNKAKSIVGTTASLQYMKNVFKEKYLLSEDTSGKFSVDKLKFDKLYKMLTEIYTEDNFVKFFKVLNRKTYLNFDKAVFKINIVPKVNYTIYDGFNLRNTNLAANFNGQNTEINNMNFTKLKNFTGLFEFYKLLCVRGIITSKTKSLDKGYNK

Compound | cell toxicity [1] | inhibition at 20 µM [2] [%] | inhibition at 20 µM [4] [%] | IC50 [6] [µM] | inhibition at 5 µM [6] [%] | also measured
Oc1c(C(Nc2cccnc2)c2ccc(C(F)(F)F)cc2)ccc2cccnc12 (racemic) [CB 7967495] | non-toxic to cells | 30.2 ± 2.4 | 92.7 ± 1.5 |  |  | concentration well-tolerated by the cells [1]: up to 50 μM; inhibition of SNAP-25 cleavage [3]: near-to-complete inhibition; effective concentration of inhibitor required for maximum protection [5]: 5 µM
Oc1c(C(Nc2cccnc2)c2ccccc2F)ccc2cccnc12 (racemic) [CB 7968218] | non-toxic to cells | 16.8 ± 2.2 | 92.8 ± 0.8 |  |  | concentration toxic to N2a cells [1]: above 45 μM; protection from SNAP-25 cleavage [3]: 68%; effective concentration of inhibitor required for maximum protection [5]: 10 µM
CCOc1ccc(C(Nc2cccnc2)c2cc(Cl)c3cccnc3c2O)cc1 (racemic) [CB 7969312] | non-toxic to cells | 31.2 ± 3 | 96.2 ± 1.2 |  |  | concentration well-tolerated by the cells [1]: up to 50 μM; inhibition of SNAP-25 cleavage [3]: near-to-complete inhibition
Oc1c(C(Nc2cccc3cccnc23)c2ccccc2)ccc2cccnc12 (racemic) [NSC 84096] | non-toxic to cells | 6.9 | 91.9 ± 1.7 |  |  | concentration well-tolerated by the cells [1]: up to 50 μM; protection from SNAP-25 cleavage [3]: 66%; Average Time to 50% Loss of Twitch Tension [5]: 59.7 ± 4.9^d min; effective concentration of inhibitor required for maximum protection [5]: 20 µM
Nc1cc(C(Nc2ccccn2)c2ccccc2)c(O)c2ncccc12 (stereo not drawn) [Compound 4874-051A] |  |  |  | 2.2 | 94 | 
Cc1ccc2ccc(C(Nc3cccnc3)c3ccccc3)c(O)c2n1 (stereo not drawn) [Compound 5116-047A] |  |  |  |  | 83 | IC50 ([6]; read-out: IC50): 1.4 µM
Cc1ccc2ccc(C(Nc3cccnc3)c3ccc(F)cc3)c(O)c2n1 (stereo not drawn) [Compound 5116-048A] |  |  |  |  | 87 | IC50 ([6]; read-out: IC50): 0.8 µM
Oc1c(C(Nc2cccnc2)c2ccc(F)cc2)ccc2cccnc12 (stereo not drawn) [Compound 5116-050A] |  |  |  | 1.2 | 86.7 | 
Oc1c(C(Nc2cccnc2)c2ccc(F)cc2)cc(Cl)c2cccnc12 (stereo not drawn) [Compound 5116-051A] |  |  |  | < 1 | 91 | 
Oc1c(C(Nc2cccnc2)c2ccccc2F)cc(Cl)c2cccnc12 (stereo not drawn) [Compound 5116-052A] |  |  |  | < 1 | 97.5 | 
O=[N+]([O-])c1ccc(NC(c2ccccc2)c2ccc3cccnc3c2O)cc1 (stereo not drawn) [NSC 1010] |  |  |  |  |  | concentration toxic to N2a cells [1]: ≥ 10 µM; inhibition of BoNT serotype B light chain [2]: failed to inhibit
CRATKML [Ac-CRATKML-NH2, reference compound] |  |  |  |  |  | Average Time to 50% Loss of Twitch Tension [5]: 52.70 ± 9.30^c min and 65.0 ± 11.5^c min
